What was measured:
[1] = system: AMBEL (Ragweed, Common); experiment: Preemergence herbicidal evaluation; type: in vivo, Ambrosia artemisifolia; settings: rated 4-5 weeks after treatment
Summary of the method: (§1)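 Seeds were mixed with potting soil and planted on about one inch of soil, then sprayed with test compound in aqueous acetone at about 0.0156 to 0.500 kg per hectare. Plants grew under standard greenhouse care and were visually rated 0-9 against untreated controls 4-5 weeks post-treatment.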

[2] = system: ECHCG (Barnyardgrass); experiment: Preemergence herbicidal evaluation; type: in vivo, Echinochloa crus-galli; settings: rated 4-5 weeks after treatment
Summary of the method: as §1

[3] = system: ECHORC (Watergrass (Calif.)); experiment: Preemergence weed control under flooded paddy conditions; type: in vivo, Echinochloa oryzoides; settings: rated 3-4 weeks after treatment
Summary of the method: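 Seeds or propagules sown in silt loam kept flooded 1.5-3 cm; compounds in 50/50 acetone/water pipetted into flood water at about 0.0313 to 0.500 kg/ha. Greenhouse; visual 0-9 rating versus untreated control 3-4 weeks after treatment.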

[4] = system: SETVI (Foxtail, Green); experiment: Postemergence herbicidal evaluation; type: in vivo, Setaria viridis
Summary of the method: (§2)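 Two-week-old seedlings sprayed with compound in 50/50 acetone/water plus 0.5% TWEEN 20, at about 0.0156 to 0.500 kg/ha, nozzle at 40 psi. Kept in greenhouse; rated visually 4-5 weeks after treatment on a 0-9 scale versus control, repeat tests averaged.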

[5] = system: IPOHE (Morningglory, Ivyleaf); experiment: Preemergence herbicidal evaluation; type: in vivo, Ipomoea hederacea; settings: rated 4-5 weeks after treatment
Summary of the method: as §1

[6] = system: GLXMAW (Soybean, Williams); experiment: Postemergence herbicidal evaluation; type: in vivo, Glycine max, (L.) Merr. cv Williams
Summary of the method: as §2

[7] = system: ABUTH (Velvetleaf); experiment: Preemergence herbicidal evaluation; type: in vivo, Abutilon theophrasti; settings: rated 4-5 weeks after treatment
Summary of the method: as §1

[8] = system: ECHORC (Watergrass (Calif.)); experiment: Postemergence weed control under flooded paddy conditions; type: in vivo, Echinochloa oryzoides; settings: postemergence weeds, 3-4 weeks after treatment
Summary of the method: (§3)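 Containers holding 3–5 cm weeds and rice at 1.5–2.5 leaves are flooded to 1.5–3 cm above soil. Compound in 50/50 v/v aqueous/acetone is then added directly to the water, about 0.0313–0.500 kg/ha. Plants are kept in the greenhouse and rated 0–9 visually at 3–4 weeks.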

[9] = system: IPOHE (Morningglory, Ivyleaf); experiment: Postemergence herbicidal evaluation; type: in vivo, Ipomoea hederacea
Summary of the method: as §2

[10] = system: CASOB (Sicklepod); experiment: Preemergence herbicidal evaluation; type: in vivo, Cassia obtusifolia; settings: rated 4-5 weeks after treatment
Summary of the method: as §1

[11] = system: CYPSE (Flatsedge); experiment: Preemergence weed control under flooded paddy conditions; type: in vivo, Cyperus serotinus; settings: rated 3-4 weeks after treatment
Summary of the method: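 Flooded-pot preemergence screen with silt loam and seeds in the upper 0.5 cm. Dose about 0.0313 to 0.500 kg/ha, delivered into flood water; visual 0-9 score after 3 to 4 weeks.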

[12] = system: ZEAMX (Corn, Field); experiment: Postemergence herbicidal evaluation; type: in vivo, Zea mays
Summary of the method: as §2

[13] = system: ABUTH (Velvetleaf); experiment: Postemergence herbicidal evaluation; type: in vivo, Abutilon theophrasti
Summary of the method: as §2

[14] = system: CYPIR (Rice Flatsedge); experiment: Postemergence weed control under flooded paddy conditions; type: in vivo, Cyperus iria; settings: postemergence weeds, 3-4 weeks after treatment
Summary of the method: as §3

How did the “Preemergence herbicidal rating AMBEL” value ([1]; rate 0.0156 kg/ha) turn out when `C[C@@H](C(=O)O)N1C(=O)CS/C1=N/c1cc(-n2c(=O)cc(C(F)(F)F)n(C)c2=O)c(F)cc1Cl` [Compound 51, 2-{{2-Chloro-5-[3,6-dihydro-3-methyl-2,6-dioxo-4-(trifluoromethyl)-1(2H)-pyrimidinyl]-4-fluoro-phenyl}imino}-α-methyl-4-oxo-3-thiazolidineacetic acid, L-] was run?
Its value is 0.0.

What about the “Preemergence herbicidal rating AMBEL” value ([1]; rate 0.0313 kg/ha) of the same molecule?
Its value is 0.0.

What about the “Preemergence herbicidal rating AMBEL” value ([1]; rate 0.0625 kg/ha) of the same molecule?
Its value is 4.0.

What about the “Preemergence herbicidal rating AMBEL” value ([1]; rate 0.1250 kg/ha) of the same molecule?
Its value is 9.0.

What about the “Preemergence herbicidal rating AMBEL” value ([1]; rate 0.2500 kg/ha) of the same molecule?
Its value is 9.0.

And the “Preemergence herbicidal rating ECHCG” value ([2]; rate 0.0156 kg/ha)?
Its value is 0.0.

What about the “Preemergence herbicidal rating ECHCG” value ([2]; rate 0.0313 kg/ha) of the same molecule?
Its value is 0.0.

And the “Preemergence herbicidal rating ECHCG” value ([2]; rate 0.0625 kg/ha)?
The value was 1.0.

What about the “Preemergence herbicidal rating ECHCG” value ([2]; rate 0.1250 kg/ha) of the same molecule?
Its value is 1.0.

And the “Preemergence herbicidal rating ECHCG” value ([2]; rate 0.2500 kg/ha)?
The value was 1.0.

What about the “Herbicidal rating ECHORC” value ([3]; 0.0625 kg/ha) of the same molecule?
Its value is 0.0.

What about the “Herbicidal rating ECHORC” value ([3]; 0.1250 kg/ha) of the same molecule?
The value was 0.0.

What about the “Herbicidal rating ECHORC” value ([3]; 0.2500 kg/ha) of the same molecule?
Its value is 0.0.

And the “Postemergence herbicidal rating SETVI” value ([4]; Rate 0.0158 kg/ha)?
The value was 7.0.

What about the “Postemergence herbicidal rating SETVI” value ([4]; Rate 0.0315 kg/ha) of the same molecule?
The value was 9.0.

What about the “Postemergence herbicidal rating SETVI” value ([4]; Rate 0.0630 kg/ha) of the same molecule?
Its value is 9.0.

What about the “Preemergence herbicidal rating IPOHE” value ([5]; rate 0.0156 kg/ha) of the same molecule?
The value was 2.0.

And the “Preemergence herbicidal rating IPOHE” value ([5]; rate 0.0313 kg/ha)?
Its value is 9.0.

What about the “Preemergence herbicidal rating IPOHE” value ([5]; rate 0.0625 kg/ha) of the same molecule?
Its value is 9.0.

What about the “Preemergence herbicidal rating IPOHE” value ([5]; rate 0.1250 kg/ha) of the same molecule?
The value was 9.0.

What about the “Preemergence herbicidal rating IPOHE” value ([5]; rate 0.2500 kg/ha) of the same molecule?
The value was 9.0.

And the “Postemergence herbicidal rating GLXMAW” value ([6]; Rate 0.0158 kg/ha)?
Its value is 6.0.

What about the “Postemergence herbicidal rating GLXMAW” value ([6]; Rate 0.0315 kg/ha) of the same molecule?
Its value is 8.0.

And the “Postemergence herbicidal rating GLXMAW” value ([6]; Rate 0.0630 kg/ha)?
Its value is 8.0.

And the “Preemergence herbicidal rating ABUTH” value ([7]; rate 0.0156 kg/ha)?
Its value is 9.0.

What about the “Preemergence herbicidal rating ABUTH” value ([7]; rate 0.0313 kg/ha) of the same molecule?
The value was 9.0.

And the “Preemergence herbicidal rating ABUTH” value ([7]; rate 0.0625 kg/ha)?
The value was 9.0.

And the “Preemergence herbicidal rating ABUTH” value ([7]; rate 0.1250 kg/ha)?
The value was 7.0.

What about the “Preemergence herbicidal rating ABUTH” value ([7]; rate 0.2500 kg/ha) of the same molecule?
Its value is 9.0.

And the “Herbicidal rating ECHORC” value ([8]; rate 0.0625 kg/ha)?
Its value is 0.0.

What about the “Herbicidal rating ECHORC” value ([8]; rate 0.1250 kg/ha) of the same molecule?
The value was 0.0.

What about the “Herbicidal rating ECHORC” value ([8]; rate 0.2500 kg/ha) of the same molecule?
The value was 0.0.

And the “Postemergence herbicidal rating IPOHE” value ([9]; Rate 0.0158 kg/ha)?
Its value is 9.0.

And the “Postemergence herbicidal rating IPOHE” value ([9]; Rate 0.0315 kg/ha)?
Its value is 9.0.

What about the “Postemergence herbicidal rating IPOHE” value ([9]; Rate 0.0630 kg/ha) of the same molecule?
The value was 9.0.

What about the “Preemergence herbicidal rating CASOB” value ([10]; rate 0.0156 kg/ha) of the same molecule?
Its value is 0.0.

What about the “Preemergence herbicidal rating CASOB” value ([10]; rate 0.0313 kg/ha) of the same molecule?
Its value is 0.0.

What about the “Preemergence herbicidal rating CASOB” value ([10]; rate 0.0625 kg/ha) of the same molecule?
Its value is 0.0.

What about the “Preemergence herbicidal rating CASOB” value ([10]; rate 0.1250 kg/ha) of the same molecule?
The value was 1.0.

And the “Preemergence herbicidal rating CASOB” value ([10]; rate 0.2500 kg/ha)?
Its value is 1.0.

And the “Herbicidal rating CYPSE” value ([11]; 0.0625 kg/ha)?
The value was 0.0.

And the “Herbicidal rating CYPSE” value ([11]; 0.1250 kg/ha)?
Its value is 0.0.

What about the “Herbicidal rating CYPSE” value ([11]; 0.2500 kg/ha) of the same molecule?
The value was 0.0.

What about the “Postemergence herbicidal rating ZEAMX” value ([12]; Rate 0.0158 kg/ha) of the same molecule?
The value was 7.0.

And the “Postemergence herbicidal rating ZEAMX” value ([12]; Rate 0.0315 kg/ha)?
The value was 7.5.

And the “Postemergence herbicidal rating ZEAMX” value ([12]; Rate 0.0630 kg/ha)?
Its value is 7.5.

What about the “Postemergence herbicidal rating ABUTH” value ([13]; Rate 0.0158 kg/ha) of the same molecule?
Its value is 9.0.

What about the “Postemergence herbicidal rating ABUTH” value ([13]; Rate 0.0315 kg/ha) of the same molecule?
The value was 9.0.

What about the “Postemergence herbicidal rating ABUTH” value ([13]; Rate 0.0630 kg/ha) of the same molecule?
The value was 9.0.

And the “Herbicidal rating CYPIR” value ([14]; rate 0.0625 kg/ha)?
The value was 2.0.

What about the “Herbicidal rating CYPIR” value ([14]; rate 0.1250 kg/ha) of the same molecule?
Its value is 3.0.

And the “Herbicidal rating CYPIR” value ([14]; rate 0.2500 kg/ha)?
Its value is 6.0.

Source: patent publication US20020137929A1, “1 - (3-heterocyclylphenyl) isothiourea, -isourea, -guanidine and -amidine herbicidal agents” (Intellectual Property Department, BASF Aktiengesellschaft, priority 1998, published 2002)
